According to US4020076A, “Novel phosphoryloxy-thiazoles” (priority 1974, dated 1977):
Read-outs that look alike come from different tables or passages of the source.

Columns and labels:
Format in all cases: in vivo
[1] = test system: Leptinotarsa Decemlineata; experiment: Activity against Leptinotarsa Decemlineata larvae; details: for mortality at 500 µg/mL: 50 g/hl; for mortality at 1000 µg/mL: 100 g/hl
Description: h. Activity againt Leptinotarsa Decemlineata
Eggplant leaves with about 40 cm^ 2 of surface area (10 × 4 cm) were cut out of untreated plants and were washed with water and dried before being immersed for 10 seconds in an acetone solution of the test product. After drying, the leaves were placed in a plastic ventilated dish and 10 larvae of Leptinotarsa Decemlineata in the fourth stage were placed thereon.

[2] = test system: Agrostis Segetum caterpillars; experiment: Activity against Agrostis Segetum caterpillars
Description: i. Activity against Agrostis Segetum caterpillars
Larvae of Agrostis Segetum in the fifth stage were placed in small boxes whose bottom (26 cm on a side) is in the form of a square with a height of 20 cm. The boxes were filled with dirt to a height of 8 cm and 5 lettuce plants of about 15 cm high were planted and 10 caterpillars were placed in each box and after 3 hours, the boxes were each sprayed with 5 ml of an aqueous solution of the test product and the percent of efficacy is reported in Table IX.

Aedes aegypti larvae = experiment: Activity against Aedes aegypti larvae; details: for mortality at 0.25 µg/mL: 0.25 mg/l (10^-3 ppm); for mortality at 2.5 µg/mL: 2.5 mg/l (10^-2 ppm); for mortality at 25 µg/mL: 25 mg/l
Description: f. Activity against Aedes aegypti larvae
10 Aedes aegypti larvae in the IV stage in 49 ml of water were added to 200 ml of water and 1 ml of an acetone solution of the test product was added thereto.

Musca domestica = experiment: Topical application activity against Musca domestica; details: read-out: percent of mortality
Description: d. Activity against Musca domestica
This topical application test consisted of placing a microliter of an acetone solution of the test product on the dorsal thorax of Musca domestica after having been put to sleep with ether. The insects were held at 20° C and 50% relative humidity and were fed milk and water.

Musca domestica larvae = experiment: Contact-ingestion test against Musca domestica larvae; details: read-out: percent of mortality
Description: g. Activity against Musca domestica larvae
This contact-ingestion test consisted of placing 2 ml of an acetone solution of different concentrations of the test product on 1 g of bran placed in a watch glass and the solvent was evaporated. The treated bran was placed in a plastic dish and was admixed with 2 ml of milk. 20 3 to 4 day old larvae of Musca domestica were added to the bran and were held at 20° C and 30% relative humidity and 3 tests were conducted for each concentration.

Sitophilus granarius = experiment: Topical application test against Sitophilus granarius; details: read-out: percent mortality
Description: c. Test against Sitophilus granarius
This topical application test comprised preparing the test compounds in acetone solution at concentrations of 5000, 500 and 50 mg of the active compound per liter and 0.2 μl of the solutions were applied to the ventral thorax of 50 Sitophilus granarius for each concentration.

Blattella germanica = experiment: Topical application activity against Blattella germanica; details: read-out: percent of mortality
Description: b. Activity against Blattella germanica
This test was a topical application in which adult male Blattella germanica received 2 microliters of an acetone solution of the test products between the second and third pair of paws. After this treatment, the test insects were held in a dim light at 20° C and were fed. The results expressed as percent of mortality in Table II were read 24 and 48 hours and 5 days after the treatment.

[3] = test system: Ditylenchus Myceliophagus; experiment: Acaricide activity, Ditylenchus Myceliophagus; details: 24 h, 0.1 g/l, read-out: Percent of mortality after 24 hours
Description: In an apparatus containing 10 ml of an aqueous solution of the test product, 0.5 ml of water containing about 2000 acariens of Ditylenchus Myceliophagus were added thereto and the percent of mortality was determined by a binocular magnifying glass after 24 hours.

Spodoptera littoralis = experiment: Ingestion test against Spodoptera littoralis caterpillars; details: po, ingestion, read-out: percent of mortality
Description: e. Activity against Spodoptera littoralis
This test was effected with Spodoptera littoralis caterpillars 1 to 1.5 cm long and an average of 10 days old. In this ingestion test, 4 ml of an acetone solution of the test products was placed on lettuce rings with an 8 mm diameter which were placed in closed plastic dishes with a 5 cm diameter. 15 caterpillars were placed in each dish and were held at 20° C and 50% relative humidity and were fed when the insects had eaten the treated lettuce ring.

[4] = 1 h, read-out: % of mortality after 1 H
[5] = 24 h, read-out: % of mortality after 24 H
[6] = 48 h, read-out: % of mortality after 48 H

What does the source list for `CCOc1nc(OP(=S)(OC)OC)c(C#N)s1` [Compound C, 2-ethoxy-4-dimethoxythiophosphoryloxy-5-cyano-thiazole]?
mortality at 500 µg/mL [1, 4]: 0%; mortality at 1000 µg/mL [1, 4]: 0%; mortality at 500 µg/mL [1, 5]: 40%; mortality at 1000 µg/mL [1, 5]: 100%; mortality at 500 µg/mL [1, 6]: 40%; mortality at 1000 µg/mL [1, 6]: 100%; Emax ([2]; 72 h, 50 g/hl, read-out: % efficacy after 3 days): 50%; Emax ([2]; 72 h, 150 g/hl, read-out: % efficacy after 3 days): 80%; Emax ([2]; 72 h, read-out: % efficacy after 3 days, 100 g/hl): 25%; Emax ([2]; 120 h, 50 g/hl, read-out: % efficacy after 5 days): 100%; Emax ([2]; 120 h, 150 g/hl, read-out: % efficacy after 5 days): 100%; Emax ([2]; 120 h, read-out: % efficacy after 5 days, 100 g/hl): 50%; Emax ([2]; 168 h, 50 g/hl, read-out: % efficacy after 7 days): 100%; Emax ([2]; 168 h, 150 g/hl, read-out: % efficacy after 7 days): 100%; Emax ([2]; 168 h, read-out: % efficacy after 7 days, 100 g/hl): 100%; mortality at 0.25 µg/mL (Aedes aegypti larvae; [5]): 0%; mortality at 2.5 µg/mL (Aedes aegypti larvae; [5]): 0%; mortality at 25 µg/mL (Aedes aegypti larvae; [5]): 100%; mortality at 0.25 µg/mL (Aedes aegypti larvae; [6]): 0%; mortality at 2.5 µg/mL (Aedes aegypti larvae; [6]): 0%; mortality at 25 µg/mL (Aedes aegypti larvae; [6]): 100%; mortality at 500 ppm (Musca domestica; 1 H, 500 ppm): 100%; mortality at 2500 ppm (Musca domestica; 1 H, 2500 ppm): 100%; mortality at 5000 ppm (Musca domestica; 1 H, 5000 ppm): 100%; mortality at 500 ppm (Musca domestica; 24 h): 97%; mortality at 2500 ppm (Musca domestica; 24 h): 100%; mortality at 5000 ppm (Musca domestica; 24 h): 100%; mortality at 500 ppm (Musca domestica larvae; 48 H): 43%; mortality at 5000 ppm (Musca domestica larvae; 48 H): 53%; mortality at 500 ppm (Musca domestica larvae; 192 h, 8 Days): 63%; mortality at 5000 ppm (Musca domestica larvae; 192 h, 8 Days): 73%; mortality at 50 ppm (Sitophilus granarius; 4 H): 0%; mortality at 500 ppm (Sitophilus granarius; 4 H): 0%; mortality at 5000 ppm (Sitophilus granarius; 4 H): 100%; mortality at 50 ppm (Sitophilus granarius; 24 H): 0%; mortality at 500 ppm (Sitophilus granarius; 24 H): 54%; mortality at 5000 ppm (Sitophilus granarius; 24 H): 100%; mortality at 50 ppm (Sitophilus granarius; 120 h, 5 Days): 0%; mortality at 500 ppm (Sitophilus granarius; 120 h, 5 Days): 96%; mortality at 5000 ppm (Sitophilus granarius; 120 h, 5 Days): 100%; mortality at 312.5 ppm (Blattella germanica; 24 H): 80%; mortality at 625 ppm (Blattella germanica; 24 H): 100%; mortality at 1250 ppm (Blattella germanica; 24 H): 100%; mortality at 312.5 ppm (Blattella germanica; 48 H): 80%; mortality at 625 ppm (Blattella germanica; 48 H): 100%; mortality at 1250 ppm (Blattella germanica; 48 H): 100%; mortality at 312.5 ppm (Blattella germanica; 120 h, 5 Days): 80%; mortality at 625 ppm (Blattella germanica; 120 h, 5 Days): 100%; mortality at 1250 ppm (Blattella germanica; 120 h, 5 Days): 100%; mortality at 100 µg/mL [3]: 66.8%; mortality at 125 ppm (Spodoptera littoralis; 1 H): 0%; mortality at 250 ppm (Spodoptera littoralis; 1 H): 0%; mortality at 500 ppm (Spodoptera littoralis; 1 H): 0%; mortality at 125 ppm (Spodoptera littoralis; 24 H): 70%; mortality at 250 ppm (Spodoptera littoralis; 24 H): 80%; mortality at 500 ppm (Spodoptera littoralis; 24 H): 100%; mortality at 125 ppm (Spodoptera littoralis; 48 H): 70%; mortality at 250 ppm (Spodoptera littoralis; 48 H): 80%; mortality at 500 ppm (Spodoptera littoralis; 48 H): 100%
